Tested on: groupe de huit goûteurs expérimentés
Assay: Sweetening power judged by a panel of eight experienced tasters against a sucrose reference solution
Assay type: in vivo
Conditions: weight basis; for Pouvoir édulcorant: Table II, relative to a 2 % sucrose solution; for pouvoir édulcorant, sur une base pondérale: approximate
From the text: Le pouvoir édulcorant des composés préparés dans les exemples suivants a été évalué par un groupe de huit goûteurs expérimentés. Pour cela, les composés, en solution aqueuse à des concentrations variables, sont comparés, sur le plan gustatif, à une solution témoin de saccharose à 2 % et dans certains cas à 5 % et 10 %, c'est-à-dire à des concentrations correspondant à celles utilisées lors d'un usage courant. Le pouvoir sucrant des édulcorants de synthèse varie en effet suivant la concentration de la solution de saccharose utilisée comme référence. Le pouvoir édulcorant du composé testé par rapport au saccharose correspond alors au rapport pondéral qui existe entre le composé et le saccharose à égale intensité édulcorante, c'est-à-dire quand les saveurs sucrées de la solution du composé testé et de la solution témoin de saccharose sont considérées, par une majorité de goûteurs, avoir la même intensité édulcorante.

[1] = by comparison with a 2 % sucrose solution
[2] = by comparison with a 5 % sucrose solution
[3] = by comparison with a 10 % sucrose solution

Row | SMILES | Pouvoir édulcorant | pouvoir édulcorant, sur une base pondérale [1] | pouvoir édulcorant, sur une base pondérale [2] | pouvoir édulcorant, sur une base pondérale [3]
1 | N#Cc1ccc(N=C(NCC(=O)O)NCC23CC4CC(CC(C4)C2)C3)cc1 [Exemple 72, acide N-[N-(l-adamantylméthyl)amino(4-cyanophénylimino)méthyl]-2-aminoéthanoïque] | 23000 | ~23 000 fois celui du saccharose | – | –
2 | C[C@H](NC(=Nc1cccc(C(F)(F)F)c1)NCC(=O)O)c1ccccc1 [Exemple 3] | 7 500 | ~7 500 fois celui du saccharose | – | –
3 | O=C(O)CNC(=Nc1ccc(Cl)cc1)NCC1CCCCC1 [Exemple 58, acide N-[N-cyclohexylméthylamino(4-chlorophénylimino)méthyl]-2-aminoéthanoïque] | 3500 | ~3 500 fois celui du saccharose | ~2 700 fois celui du saccharose | ~1 500 fois celui du saccharose
4 | Cc1cc(C)cc(N=C(NCC(=O)O)N(C)Cc2ccccc2)c1 [Exemple 88, acide N-[N-méthyl-N-benzylamino (3,5-diméthylphénylimino)méthyl]-2-aminoéthanoïque] | 5000 | ~5 000 fois celui du saccharose | – | –
5 | COc1cccc(N=C(NCC(=O)O)N[C@@H](C)c2ccccc2)c1 [Exemple 9, acide N-[N-(S)-ot-méthylbenzylamino (3-méthoxyphénylimino)méthyl]-2-aminoéthanoïque] | 4 500 | ~4 500 fois celui du saccharose | – | –
6 | C[C@H](NC(=Nc1cccc(Br)c1)NCC(=O)O)c1ccccc1 [Exemple 2, acide N-[N-(S)-a-méthylbenzylamino (3-bromophénylimino)méthyl]-2-aminoéthanoïque] | 25000 | ~25 000 fois celui du saccharose | – | –
7 | C[C@H](NC(=Nc1ccc([N+](=O)[O-])cc1)NCC(=O)O)c1ccccc1 [Exemple 18, acide N-[N-(S)-a-méthylbenzylamino (4-nitrophénylimino)méthyl]-2-aminoéthanoïque] | 7000 | ~7 000 fois celui du saccharose | – | –
8 | C[C@H](NC(=Nc1cc(Cl)cc(Cl)c1)NCC(=O)O)c1ccccc1 [Exemple 26, acide N-[N-(S)-α-méthylbenzylamino (3,5-dichlorophénylimino)méthyl]-2-aminoéthanoïque] | 120000 | ~120 000 fois celui du saccharose | ~90 000 fois celui du saccharose | ~50 000 fois celui du saccharose
9 | N#CN=C(NCC(=O)O)Nc1cccc(Cl)c1 [Exemple 73, acide N-[cyanoimino(3-chlorophénylamino)méthyl]-2-aminoéthanoïque] | 80 | ~80 fois celui du saccharose | – | –
10 | O=C(O)CNC(=Nc1cc(Cl)cc(Cl)c1)NCc1ccccc1 [Exemple 51, acide N-[N-benzylamino(3,5-dichlorophénylimino)méthyl]-2-aminoéthanoïque] | 80000 | ~80 000 fois celui du saccharose | – | –
11 | COc1cc(NC(=N[C@@H](C)c2ccccc2)NCC(=O)O)cc(C(F)(F)F)c1 [Exemple 24, acide N-[N-(S)-α-méthylbenzylamino (3-trifluorométhyl-5-méthoxyphénylimino)méthyl]-2-amino-éthanoïque] | 7000 | ~7 000 fois celui du saccharose | – | –
12 | N#Cc1cccc(N=C(NCC(=O)O)NCC2CCCCC2)c1 [Exemple 56, acide N-[N-cyclohexylméthylamino (3-cyanophénylimino)méthyl]-2-aminoéthanoïque] | 5000 | ~5 000 fois celui du saccharose | – | –
13 | Cc1ccc(NC(=Nc2ccc(C#N)cc2)NCC(=O)O)cc1 [Exemple 66, acide N-[N-(4-méthylphényl)amino(4-cyanophénylimino)méthyl]--2-aminoéthanoïque] | 7000 | ~7 000 fois celui du saccharose | – | –
14 | COC(=O)c1ccc(N=C(NCC(=O)O)NCC2CCCCC2)cc1 [Exemple 60, acide N-[N-cyclohexylméthylamino(4-méthoxycarbonylphénylimino)méthyl]-2-aminoéthanoïque] | 1300 | ~1 300 fois celui du saccharose | ~900 fois celui du saccharose | ~500 fois celui du saccharose
15 | C[C@H](NC(=Nc1ccccc1)NCC(=O)O)c1ccccc1 [Exemple 1, acide N-[N-(S)-α-méthylbenzylamine (phénylimino)méthyl]-2-aminoéthanoïque] | 5000 | ~5 000 fois celui du saccharose | – | –
16 | N#Cc1ccc(N=C(NCC(=O)O)N2CCCCC2)cc1 [Exemple 83, acide N-[N,N-(pentaméthylène)amino (4-cyanophénylimino)méthyl]-2-aminoéthanoïque] | 200 | ~200 fois celui du saccharose | – | –
17 | N#Cc1ccc(N=C(NCC(=O)O)NC23CC4CC(CC(C4)C2)C3)cc1 [Exemple 71, acide N-[N-(1-adamantyl)amino(4-cyanophénylimine)méthyl]-2-8minoéthanoique] | 3 500 | ~3 500 fois celui du saccharose | – | –
18 | CN(C(=NCc1ccccc1)NCC(=O)O)c1ccccc1 [Exemple 84, acide N-[benzylimino(N-méthyl-N-phénylamino)méthyl]-2-aminoéthanoïque] | 200 | ~200 fois celui du saccharose | – | –
19 | Cc1ccc(N=C(NCC(=O)O)N[C@@H](C)c2ccccc2)cc1 [Exemple 12, acide N-[N-(S)-a-méthylbenzylamino (4-méthylphénylimino)méthyl]-2-aminoéthanoïque] | 800 | ~800 fois celui du saccharose | – | –
20 | O=C(O)CNC(=Nc1cc(Cl)cc(Cl)c1)NC1CCCCCC1 [Exemple 44, acide N-[N-cycloheptylamino (3,5-dichlorophénylimino)méthyl]-2-aminoéthanoïque] | 20000 | ~20 000 fois celui du saccharose | – | –
21 | CC(C)(C)CC(C)(C)NC(=Nc1ccc(C#N)cc1)NCC(=O)O [Exemple 39, acide N-[N-(1,1,3,3-tétraméthylbut-yl)amino(4-cyanophénylimino)méthyl]-2-aminoéthanoïque] | 1 200 | ~1 200 fois celui du saccharose | – | –
22 | N#Cc1ccc(N=C(NCC(=O)O)Nc2ccc3c(c2)OCO3)cc1 [Exemple 75, acide N-[N-(3,4-méthylènedioxyphényl)amino(4-cyanophénylimino)méthyl]-2-aminoéthanoïque] | 5000 | ~5 000 fois celui du saccharose | – | –
23 | C[C@H](NC(=Nc1ccc(C(F)(F)F)cc1)NCC(=O)O)c1ccccc1 [Exemple 11, acide N-[N-(S)-α-méthylbenzylamino (4-trifluorométhylphénylimino)méthyl]-2-aminoéthanoïque] | 500 | ~500 fois celui du saccharose | – | –
24 | N#Cc1ccc(N=C(NCC(=O)O)N2CCCC2)cc1 [Exemple 82, acide N-[N,N-(tétraméthylène)amino (4-cyanophénylimino)méthyl]-2-aminoéthanoïque] | 100 | ~100 fois celui du saccharose | – | –
25 | CCNC(=Nc1ccc(C#N)cc1)NCC(=O)O [Exemple 35, acide N-[N-éthylamino(4-cyanophénylimino)méthyl]-2-aminoéthanoïque] | 350 | ~350 fois celui du saccharose | – | –
26 | O=C(O)CNC(=Nc1ccccc1)NCC1CCCCC1 [Exemple 55, acide N-[N-cyclohexylméthylamino (phénylimino)méthyl]-2-aminoéthanoïque] | 3 300 | ~3 300 fois celui du saccharose | ~2 500 fois celui du saccharose | ~2 000 fois celui du saccharose
27 | O=C(O)CNC(=Nc1cc(Cl)cc(Cl)c1)NC1CCCCCCC1 [Exemple 46, acide N-[N-cyclooctylamino (3,5-dichlorophénylimino)méthyl]-2-aminoéthanoïque] | 60000 | ~60 000 fois celui du saccharose | – | –
